ChEMBL document CHEMBL1201862, “PubChem BioAssay data set” (2004)
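Interpolation was linear, between the two tested concentrations surrounding the appropriate level; five concentrations were tested over 48 hours in 96-well plates. GI50: concentration for 50% inhibition of growth.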 The source made the active and inactive calls. Rule as the data show it: active = GI50 up to about 1.1 µM and inactive = higher.

Columns and labels:
Experiment in all cases: NCI tumour cell line growth inhibition, 48 h
DLD-1 = system: DLD-1
DMS-114 = system: DMS-114
DMS-273 = system: DMS-273
KM-20L2 = system: KM-20L2
LXFL 529 = system: LXFL 529
RXF 631 = system: RXF 631
SNB-78 = system: SNB-78
XF498 = system: XF498
HOP-18 = system: HOP-18

| SMILES | GI50 (DLD-1) | GI50 (DMS-114) | GI50 (DMS-273) | GI50 (KM-20L2) | GI50 (LXFL 529) | GI50 (RXF 631) | GI50 (SNB-78) | GI50 (XF498) | GI50 (HOP-18) |
| --- | --- | --- | --- | --- | --- | --- | --- | --- | --- |
| CCOC(=O)C(=O)Nc1nc2c(s1)C(=O)c1ccccc1C2=O | 15.3 µM (inactive) | 3.6 µM (inactive) | 19.6 µM (inactive) | 21.2 µM (inactive) | 13.4 µM (inactive) | 12.3 µM (inactive) | 11.6 µM (inactive) | 13.9 µM (inactive) | – |
| Cc1ccc(/N=C/c2ccc3c(c2)OCO3)cc1C | > 100 µM (inactive) | – | > 100 µM (inactive) | > 100 µM (inactive) | > 100 µM (inactive) | > 100 µM (inactive) | > 100 µM (inactive) | > 100 µM (inactive) | > 100 µM (inactive) |
| CCCCN/C(=N/C#N)NCc1ccccc1 | > 100 µM (inactive) | – | > 100 µM (inactive) | > 100 µM (inactive) | > 100 µM (inactive) | – | > 100 µM (inactive) | > 100 µM (inactive) | – |
| Cn1cc2ccccc2c1-c1nc(F)nc(Oc2ccc3c(c2)CC[C@@H]2C3CC[C@@]3(C)C2CC[C@@H]3O)n1 (stereo partly drawn) | 7.16 µM (inactive) | 3.66 µM (inactive) | 11.6 µM (inactive) | 19.1 µM (inactive) | 3.71 µM (inactive) | – | 22.3 µM (inactive) | – | 18.2 µM (inactive) |
| O=C1[C@H]2ON(c3ccccc3)C(c3ccco3)[C@H]2C(=O)N1c1ccc(Cc2ccc(N3C(=O)[C@@H]4ON(c5ccccc5)C(c5ccco5)[C@@H]4C3=O)cc2)cc1 (stereo partly drawn) | > 100 µM (inactive) | > 100 µM (inactive) | 78.3 µM (inactive) | > 100 µM (inactive) | > 100 µM (inactive) | – | > 100 µM (inactive) | 42.7 µM (inactive) | > 100 µM (inactive) |
| COC(=O)C1=C(C)C(=O)C2(CCCCCC2C(=O)OC)C1 (stereo not drawn) | > 100 µM (inactive) | > 100 µM (inactive) | > 100 µM (inactive) | > 100 µM (inactive) | > 100 µM (inactive) | – | > 100 µM (inactive) | – | > 100 µM (inactive) |
| CC(=O)OCCc1cccnc1/C=N/O | > 100 µM (inactive) | > 100 µM (inactive) | > 100 µM (inactive) | > 100 µM (inactive) | > 100 µM (inactive) | – | > 100 µM (inactive) | > 100 µM (inactive) | > 100 µM (inactive) |
| O=c1cc(-c2ccc(O)cc2)oc2cc(O)cc(O)c12 [APIGENIN] | – | 32.3 µM (inactive) | 18.6 µM (inactive) | 28.8 µM (inactive) | 18.2 µM (inactive) | – | 17.5 µM (inactive) | 24.2 µM (inactive) | – |
| O=C1CCC2CCOc3ccc(O)c1c32 (stereo not drawn) | > 100 µM (inactive) | > 100 µM (inactive) | > 100 µM (inactive) | > 100 µM (inactive) | – | > 100 µM (inactive) | > 100 µM (inactive) | – | – |
| O=C(O)CC1CC=C[C@H]2c3cc4c(cc3C(=O)NC12)OCO4 (stereo partly drawn) | > 75 µM (inactive) | > 75 µM (inactive) | > 75 µM (inactive) | > 75 µM (inactive) | > 75 µM (inactive) | – | > 75 µM (inactive) | – | – |
| COc1cc(O)c(C(=O)/C=C/c2ccc(OC)c(OCc3ccccc3)c2)c(OC)c1 | > 100 µM (inactive) | – | 0.175 µM (active) | > 100 µM (inactive) | 5.45 µM (inactive) | – | 2.57 µM (inactive) | > 100 µM (inactive) | > 100 µM (inactive) |
| CCCN(CCC)C(=O)c1nc(N)nc(-c2ccc(OC)cc2)c1-c1ccc(OC)cc1 | > 100 µM (inactive) | 84.9 µM (inactive) | > 100 µM (inactive) | > 100 µM (inactive) | 82 µM (inactive) | > 100 µM (inactive) | 80.5 µM (inactive) | > 100 µM (inactive) | 46.7 µM (inactive) |
| CCN(CC)CCCNc1ccc2nc(C)n3c4ccc(O)cc4c(=O)c1c23 | 1.2 µM (inactive) | 5.41 µM (inactive) | 0.619 µM (active) | 1.65 µM (inactive) | 3.22 µM (inactive) | 3.79 µM (inactive) | 5.35 µM (inactive) | 6.81 µM (inactive) | 12.4 µM (inactive) |
| C(/COc1cccnc1)=N\NC1=NCCN1 | > 100 µM (inactive) | > 100 µM (inactive) | > 100 µM (inactive) | > 100 µM (inactive) | > 100 µM (inactive) | – | > 100 µM (inactive) | > 100 µM (inactive) | > 100 µM (inactive) |
| O/N=C/c1ccc(O)c(O)c1 | > 100 µM (inactive) | 14.7 µM (inactive) | 62.5 µM (inactive) | > 100 µM (inactive) | 84.9 µM (inactive) | – | > 100 µM (inactive) | > 100 µM (inactive) | – |
| CN(C)CCNc1ccc2ncn3c4ccc(O)cc4c(=O)c1c23 | 1.08 µM (active) | 0.526 µM (active) | 0.317 µM (active) | 2.38 µM (inactive) | 1.41 µM (inactive) | – | 3.03 µM (inactive) | 4.13 µM (inactive) | 10.6 µM (inactive) |
| N#CC1C(=O)NC(=O)C1=O (stereo not drawn) | – | > 100 µM (inactive) | > 100 µM (inactive) | > 100 µM (inactive) | > 100 µM (inactive) | > 100 µM (inactive) | > 100 µM (inactive) | > 100 µM (inactive) | > 100 µM (inactive) |
| CN(C)CC/C(=N\Nc1c(Cl)cccc1Cl)c1ccccc1 | 31.1 µM (inactive) | 17.3 µM (inactive) | 16.8 µM (inactive) | 17.1 µM (inactive) | 14.8 µM (inactive) | – | 16.7 µM (inactive) | – | 15.1 µM (inactive) |
| CCOc1ccc(/C=N\N2C(=O)c3ccccc3C2=O)cc1 | > 100 µM (inactive) | > 100 µM (inactive) | > 100 µM (inactive) | > 100 µM (inactive) | > 100 µM (inactive) | > 100 µM (inactive) | > 100 µM (inactive) | > 100 µM (inactive) | > 100 µM (inactive) |
| CCN1/C(=C/C(C)=C/c2sc3ccccc3[n+]2CC)Sc2ccccc21 | 0.207 µM (active) | 0.082 µM (active) | 0.064 µM (active) | 0.191 µM (active) | 0.0331 µM (active) | – | 0.34 µM (active) | 0.0762 µM (active) | – |
| CC12CC(=O)OC(Cc3ccccc31)O2 (stereo not drawn) | > 100 µM (inactive) | > 100 µM (inactive) | > 100 µM (inactive) | > 100 µM (inactive) | > 100 µM (inactive) | – | > 100 µM (inactive) | > 100 µM (inactive) | > 100 µM (inactive) |
| COc1cc(-c2oc3c(OC)c(OC)cc(O)c3c(=O)c2OC)ccc1O [TERNATIN] | 3.7 µM (inactive) | > 100 µM (inactive) | – | > 100 µM (inactive) | 3.98 µM (inactive) | > 100 µM (inactive) | 6.49 µM (inactive) | 2.2 µM (inactive) | – |
| O=C1NN=CN2C(=O)CCC12 (stereo not drawn) | > 100 µM (inactive) | > 100 µM (inactive) | > 100 µM (inactive) | > 100 µM (inactive) | > 100 µM (inactive) | > 100 µM (inactive) | > 100 µM (inactive) | > 100 µM (inactive) | – |
| CC(C)OCN1COCN/C1=N/C#N | 26.4 µM (inactive) | 58.6 µM (inactive) | 37.5 µM (inactive) | > 100 µM (inactive) | > 100 µM (inactive) | > 100 µM (inactive) | – | – | > 100 µM (inactive) |
| O=CN/C=C/c1ccc(O)c(O)c1 | > 100 µM (inactive) | > 100 µM (inactive) | > 100 µM (inactive) | > 100 µM (inactive) | > 100 µM (inactive) | > 100 µM (inactive) | > 100 µM (inactive) | > 100 µM (inactive) | – |
| O=c1oc2c3ccc4ccccc4c3n(Cc3nc4ccccc4[nH]3)c2c2ccccc12 | 5.73 µM (inactive) | 4.95 µM (inactive) | – | > 69.5 µM (inactive) | 9.66 µM (inactive) | – | > 100 µM (inactive) | – | 7.57 µM (inactive) |
